Reference: US20250134890A1, “ANTIMALARIAL HEXAHYDROPYRIMIDINE ANALOGUES” (UCB BIOPHARMA SRL, priority 2022, published 2025)
Counter-ions that a name gives are not always drawn.

tested on: Plasmodium falciparum: 3D7 strain; experiment: P. falciparum 3D7 asexual blood stage assay (SYBR green readout); format: cell-based; details: Plasmodium falciparum, 3D7, Erythrocyte, 72 h, P. falciparum 3D7 in human erythrocytes, 72 h incubation, SYBR green fluorescence
From the text: The compounds of the present invention are potent inhibitors of the growth and propagation of the Plasmodium falciparum parasite in human blood.
The assay used to measure the effect of test compounds on a bloodstream stage of Plasmodium falciparum: 3D7 strain employs SYBR green as the readout. This is a dye that binds to double stranded deoxyribonucleic acid (DNA) with a resulting increase in fluorescence, allowing detection of P. falciparum DNA in infected erythrocytes, and thereby providing a measure of parasite growth and propagation.
Erythrocytes (A+blood) were prepared for both parasite culture and assay by washing 4 times with incomplete media (15.9 g RPMI 1640 (25 mM HEPES, L-glutamine), 1 g NaHCO3, 2 g glucose, 400 μL gentacin (500 mg/mL), 2 mL hypoxanthine solution (13.6 g/L in 0.1M NaOH pH 7.3) in 1 litre of media). The cells were centrifuged at 1800 g for 5 minutes, before decanting the supernatant and re-suspending in fresh incomplete media. On the final wash, the cells were re-suspended in complete media (incomplete media with 5 g/L AlbumaxII), and centrifuged at 1800 g for 3 minutes. This cell sediment was treated as 100% haematocrit.
P. falciparum 3D7 was cultured in erythrocytes at 5% haematocrit in complete media at 37° C. (1% O2, 3% CO2, balance N2). Cultures were split on a weekly basis to achieve a 1% parasitaemia in erythrocites at 5% haematocrit in fresh media. Culture media is replaced by fresh media every other day (2 times during the week).
On day 1, test compounds were added to assay plates using Echo dispensing technology ([…] and 20 points titration). 50 nL of each compound dilution was added to 50 μL of culture (5% haematocrit, 0.5% parasitaemia) and incubated for 72 h at 37° C. (1% O2, 3% CO2, balance N2). Final concentrations of test compounds ranged from 50,000 nM to 15 nM, in […].
On day 4, 10 μL SYBR green (Invitrogen S7563 supplied as 10,000×concentrate in DMSO) pre-diluted to 3×concentrate with Lysis buffer (20 mM Tris pH 7.9, 5% EDTA, 0.16% w/v, 1.6% TX100 v/v) was added to the cultures and incubated in the dark, overnight, at room temperature.
On day 5, fluorescent signal was measured using a BioTek plate reader (excitation 485 nm, emission 528 nm). All data were processed using IDBS ActivityBase. Raw data were converted into percent inhibition through linear regression by setting the high inhibition control (mefloquine) as 100% and the no inhibition control (DMSO) as 0%. Quality control criteria for passing plates were as follows: Z′>0.5, S:B>3, % CV(no inhibition control)<15. The formula used to calculate Z′ is: […]
All EC50 curve fitting was undertaken using the following bi-phasic two site dose response using XLfit model 300 (IDBS):
where A=100 minus the top of the upper curve 1 and the bottom of lower curve; B=Hill slope; log(C)=IC50 concentration at lower site; log(D)=IC50 concentration at upper site; x=inhibitor concentration; and y=% inhibition.

Structure (SMILES)	IC50 [nM]
C[C@H]1C[C@@H](N2C(=N)N[C@](C)(c3cccc(-c4ccc(Cl)cn4)c3Cl)CC2=O)CCS1(=O)=O (relative stereo) [Example 75, (6S)-6-[2-Chloro-3-(5-chloro-pyridin-2-yl)phenyl]-2-imino-6-methyl-3-[(2S*,4S*)-2-methyl-1,1-dioxothian-4-yl]hexahydro-pyrimidin-4-one hydrochloride]	217
C[C@H]1C[C@@H](N2C(=N)N[C@](C)(c3cccc(-c4ccc5ncn(CC(F)(F)F)c5c4)c3Cl)CC2=O)CCO1 [Example 6, (6S)-6-{2-Chloro-3-[3-(2,2,2-trifluoroethyl)benzimidazol-5-yl]-phenyl}-2-imino-6-methyl-3-[(2S,4S)-2-methyltetrahydropyran-4-yl]hexahydropyrimidin-4-one hydrochloride]	26
CO[C@H]1C[C@@H](N2C(=N)N[C@](C)(c3cccc(-c4ccc(N=S(C)(C)=O)cc4F)c3Cl)CC2=O)CCC1(F)F (relative stereo) [Example 12, (6S)-6-[2-Chloro-3-(4-{[(dimethyl)-(oxo)-λ^6-sulfanylidene]amino}-2-fluorophenyl)phenyl]-3-[(1S*,3S*)-4,4-difluoro-3-methoxy-cyclohexyl]-2-imino-6-methyl-hexahydropyrimidin-4-one hydrochloride]	359
C[C@H](c1cccnc1)n1cc(-c2cccc([C@]3(C)CC(=O)N([C@H]4CCO[C@@H](C)C4)C(=N)N3)c2Cl)nn1 [Example 128, (6S)-6-(2-Chloro-3-{1-[(1R)-1-(pyridin-3-yl)ethyl]-1,2,3-triazol-4-yl}phenyl)-2-imino-6-methyl-3-[(2S,4S)-2-methyltetrahydropyran-4-yl]hexahydropyrimidin-4-one trifluoroacetic acid salt]	112
C[C@@H]1C[C@H](N2C(=N)N[C@](C)(c3cccc(-c4ccc(F)cc4F)c3Cl)CC2=O)CCN1C (relative stereo) [Example 107, (6S)-6-[2-Chloro-3-(2,4-difluoro-phenyl)phenyl]-3-[(2R*,4R*)-1,2-dimethylpiperidin-4-yl]-2-imino-6-methylhexahydropyrimidin-4-one hydrochloride]	228
C[C@H]1C[C@H](N2C(=N)N[C@](C)(c3cccc(-c4ccc(C5CC5)nc4)c3Cl)CC2=O)CCS1(=O)=O (relative stereo) [Example 69, (6S)-6-[2-Chloro-3-(6-cyclopropyl-pyridin-3-yl)phenyl]-2-imino-6-methyl-3-[(2S*,4R*)-2-methyl-1,1-dioxothian-4-yl]hexahydro-pyrimidin-4-one hydrochloride]	260
C[C@@]1(c2cccc(-c3ccc(F)cc3F)c2Cl)CC(=O)N([C@@H]2CCC(F)(F)[C@H](O)C2)C(=N)N1 (relative stereo) [Example 97, (6S)-6-[2-Chloro-3-(2,4-difluoro-phenyl)phenyl]-3-[(1R*,3R*)-4,4-difluoro-3-hydroxycyclohexyl]-2-imino-6-methylhexahydro-pyrimidin-4-one hydrochloride]	280
C[C@H]1C[C@@H](N2C(=N)N[C@](C)(c3cccc(-c4cccc(N=S(C)(C)=O)c4)c3Cl)CC2=O)CCC1(F)F [Example 20, (6S)-6-[2-Chloro-3-(3-{[(dimethyl)-(oxo)-λ^6-sulfanylidene]amino}-phenyl)phenyl]-3-[(1S,3S)-4,4-difluoro-3-methylcyclohexyl]-2-imino-6-methylhexahydro-pyrimidin-4-one hydrochloride]	88
C[C@@]1(c2cccc(-c3cccc(Cl)c3)c2Cl)CC(=O)N([C@@H]2CCOC[C@H]2O)C(=N)N1 (relative stereo) [Example 96, (6S)-6-[2-Chloro-3-(3-chloro-phenyl)phenyl]-3-[(3S*,4R*)-3-hydroxytetrahydropyran-4-yl]-2-imino-6-methylhexahydro-pyrimidin-4-one hydrochloride]	1430
COc1ccc(-c2cccc([C@]3(C)CC(=O)N([C@H]4CCO[C@@H](C)C4)C(=N)N3)c2Cl)cn1 [Example 43, (6S)-6-[2-Chloro-3-(6-methoxy-pyridin-3-yl)phenyl]-2-imino-6-methyl-3-[(2S,4S)-2-methyl-tetrahydropyran-4-yl]hexahydro-pyrimidin-4-one trifluoroacetic acid salt]	94
CCCCn1cc(-c2cccc([C@]3(C)CC(=O)N([C@H]4CCO[C@@H](C)C4)C(=N)N3)c2Cl)nn1 [Example 127, (6S)-6-[3-(1-Butyl-1,2,3-triazol-4-yl)-2-chlorophenyl]-2-imino-6-methyl-3-[(2S,4S)-2-methyl-tetrahydropyran-4-yl]hexahydro-pyrimidin-4-one trifluoroacetic acid salt]	100
CO[C@H]1C[C@@H](N2C(=N)N[C@](C)(c3cccc(-c4ccc(S(C)(=O)=O)cc4F)c3Cl)CC2=O)CCC1(F)F (relative stereo) [Example 10, (6S)-6-{2-Chloro-3-[2-fluoro-4-(methylsulfonyl)phenyl]phenyl}-3-[(1S*,3S*)-4,4-difluoro-3-methoxy-cyclohexyl]-2-imino-6-methyl-hexahydropyrimidin-4-one hydrochloride]	6
C[C@@H]1C[C@H](N2C(=N)N[C@](C)(c3cccc(-c4ccc(F)cc4F)c3Cl)CC2=O)CCN1 (relative stereo) [Example 103, (6S)-6-[2-Chloro-3-(2,4-difluoro-phenyl)phenyl]-2-imino-6-methyl-3-[(2R*,4R*)-2-methylpiperidin-4-yl]hexahydropyrimidin-4-one hydrochloride]	744
C[C@H]1C[C@@H](N2C(=N)N[C@](C)(c3cccc(-c4ccc(Cl)cc4F)c3Cl)CC2=O)CCO1 [Example 15, (6S)-6-[2-Chloro-3-(4-chloro-2-fluorophenyl)phenyl]-2-imino-6-methyl-3-[(2S,4S)-2-methyl-tetrahydropyran-4-yl]hexahydro-pyrimidin-4-one trifluoroacetic acid salt]	142
C[C@@]1(c2cccc(-c3cc(C4CC4)no3)c2Cl)CC(=O)N([C@@H]2CCC(F)(F)[C@H](O)C2)C(=N)N1 (relative stereo) [Example 86, (6S)-6-[2-Chloro-3-(3-cyclopropyl-isoxazol-5-yl)phenyl]-3-[(1R*,3R*)-4,4-difluoro-3-hydroxy-cyclohexyl]-2-imino-6-methyl-hexahydropyrimidin-4-one hydrochloride]	286
C[C@H]1C[C@@H](N2C(=N)N[C@](C)(c3cccc(-c4cccc(NS(C)(=O)=O)c4)c3Cl)CC2=O)CCC1(F)F [Example 13, N-[3-(2-Chloro-3-{(4S)-1-[(1S,3S)-4,4-difluoro-3-methylcyclohexyl]-2-imino-4-methyl-6-oxohexahydro-pyrimidin-4-yl}phenyl)phenyl]-methanesulfonamide trifluoroacetic acid salt]	10

same assay, conditions: Plasmodium falciparum, Erythrocyte; P. falciparum 3D7 in human erythrocytes, 72 h incubation, SYBR green fluorescence; read-out: IC50

Structure (SMILES)	IC50 [nM]
C[C@H]1C[C@@H](N2C(=N)N[C@](C)(c3cccc(-c4cccc(N=S(C)(C)=O)c4)c3Cl)CC2=O)CCO1 [Example 3, (6S)-6-[2-Chloro-3-(3-{[(dimethyl)-(oxo)-26-sulfanylidene]amino}-phenyl)phenyl]-2-imino-6-methyl-3-[(2S,4S)-2-methyltetrahydro-pyran-4-yl]hexahydropyrimidin-4-one hydrochloride]	90
CN1CCC(N2C(=N)N[C@](C)(c3cccc(-c4ccc(F)cc4F)c3Cl)CC2=O)CC1 [Example 93, (6S)-6-[2-Chloro-3-(2,4-difluoro-phenyl)phenyl]-2-imino-6-methyl-3-(1-methylpiperidin-4-yl)-hexahydropyrimidin-4-one]	112
CN1CCC(N2C(=N)N[C@](C)(c3cccc(-c4cc(Cl)ccc4Cl)c3Cl)CC2=O)CC1 [Example 92, (6S)-6-[2-Chloro-3-(2,5-dichloro-phenyl)phenyl]-2-imino-6-methyl-3-(1-methylpiperidin-4-yl)-hexahydropyrimidin-4-one]	50
CN1CCC(N2C(=N)N[C@](C)(c3cccc(-c4ccc(OC(F)(F)F)cc4Cl)c3Cl)CC2=O)CC1 [Example 91, (6S)-6-{2-Chloro-3-[2-chloro-4-(trifluoromethoxy)phenyl]phenyl}-2-imino-6-methyl-3-(1-methyl-piperidin-4-yl)hexahydropyrimidin-4-one]	6400
